Measured values reported in ChEMBL document CHEMBL1135113 (Bioorg Med Chem Lett, 2002).
Activity calls are given as the source filed them. No cut-off for these calls is given here.

How the values were obtained:
Integrin alpha-V/beta-3 = Integrin alpha-V/beta-3 (Homo sapiens, UniProt P05106+P06756); test: Selectivity against alphaV-beta3 integrin; format: protein-complex assay
[1] = target: T1, Integrin alpha-IIb/beta-3 (Homo sapiens, UniProt P05106+P08514); test: Selectivity against alpha IIb beta-3 integrin; Not active; format: protein-complex assay
T1 sequence (P05106 27-788 limits assumed): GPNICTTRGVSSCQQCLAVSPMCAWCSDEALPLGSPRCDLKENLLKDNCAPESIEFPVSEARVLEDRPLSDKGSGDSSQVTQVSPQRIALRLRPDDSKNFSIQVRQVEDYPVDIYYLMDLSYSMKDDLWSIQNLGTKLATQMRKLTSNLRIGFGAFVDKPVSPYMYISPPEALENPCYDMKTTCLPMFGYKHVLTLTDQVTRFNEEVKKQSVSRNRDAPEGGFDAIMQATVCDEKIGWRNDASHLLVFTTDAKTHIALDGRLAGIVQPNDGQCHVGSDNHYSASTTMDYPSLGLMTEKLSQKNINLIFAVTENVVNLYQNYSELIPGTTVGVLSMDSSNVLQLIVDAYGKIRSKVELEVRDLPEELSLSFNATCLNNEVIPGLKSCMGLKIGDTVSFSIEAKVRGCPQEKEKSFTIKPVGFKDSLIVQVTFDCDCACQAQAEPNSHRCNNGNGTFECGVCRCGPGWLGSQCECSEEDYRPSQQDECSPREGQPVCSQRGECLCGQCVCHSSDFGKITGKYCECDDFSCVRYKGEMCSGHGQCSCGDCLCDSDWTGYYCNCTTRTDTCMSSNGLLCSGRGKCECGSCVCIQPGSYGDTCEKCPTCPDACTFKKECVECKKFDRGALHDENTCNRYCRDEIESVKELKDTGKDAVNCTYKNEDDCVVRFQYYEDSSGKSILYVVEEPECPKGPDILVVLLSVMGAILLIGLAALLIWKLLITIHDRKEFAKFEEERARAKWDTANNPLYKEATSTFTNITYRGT
T1 sequence (P08514 32-887 limits assumed): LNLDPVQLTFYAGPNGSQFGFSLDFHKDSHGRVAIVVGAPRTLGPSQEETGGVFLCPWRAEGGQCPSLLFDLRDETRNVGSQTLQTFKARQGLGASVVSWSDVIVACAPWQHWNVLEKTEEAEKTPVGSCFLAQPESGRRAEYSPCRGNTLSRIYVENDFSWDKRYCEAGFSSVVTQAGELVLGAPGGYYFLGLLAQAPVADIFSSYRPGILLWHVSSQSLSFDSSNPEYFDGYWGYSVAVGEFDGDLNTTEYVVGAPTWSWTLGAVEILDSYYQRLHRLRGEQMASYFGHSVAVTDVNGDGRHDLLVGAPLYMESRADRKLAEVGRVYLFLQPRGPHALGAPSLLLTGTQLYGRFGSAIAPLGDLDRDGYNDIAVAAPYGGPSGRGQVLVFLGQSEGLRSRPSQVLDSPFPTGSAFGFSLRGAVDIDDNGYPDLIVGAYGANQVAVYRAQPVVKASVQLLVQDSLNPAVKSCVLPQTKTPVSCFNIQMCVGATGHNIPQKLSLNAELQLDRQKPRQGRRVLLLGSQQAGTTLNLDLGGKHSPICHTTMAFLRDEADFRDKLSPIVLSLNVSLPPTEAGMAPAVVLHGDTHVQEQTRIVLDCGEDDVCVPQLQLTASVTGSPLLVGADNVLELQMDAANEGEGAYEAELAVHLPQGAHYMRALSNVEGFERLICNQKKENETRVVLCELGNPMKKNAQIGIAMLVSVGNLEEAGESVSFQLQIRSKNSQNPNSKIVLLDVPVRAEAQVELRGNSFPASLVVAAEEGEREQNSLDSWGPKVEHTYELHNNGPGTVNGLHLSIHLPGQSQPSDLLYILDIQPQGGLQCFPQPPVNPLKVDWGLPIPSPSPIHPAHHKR
T1 sequence (P08514 891-1039 limits assumed): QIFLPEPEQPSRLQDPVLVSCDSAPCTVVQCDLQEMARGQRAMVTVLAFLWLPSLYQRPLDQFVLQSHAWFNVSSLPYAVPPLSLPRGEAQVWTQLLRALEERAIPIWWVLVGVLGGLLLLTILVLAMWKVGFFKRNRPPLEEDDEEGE

Homo sapiens = species: Homo sapiens; test: Efficacy of compound in cell migration of primary human Smooth Muscle Cells (SMC) was determined; format: functional
[2] = target: T2, Integrin alpha-4/beta-1 (Homo sapiens) (UniProt P05556+P13612); test: Cell adhesion activity against alpha4-beta1 integrin at 10e-5 M; format: protein-complex assay
[3] = target: Integrin alpha-5/beta-1 (Homo sapiens) (UniProt P05556+P08648); test: Cell adhesion activity against alpha5-beta1 integrin; format: protein-complex assay
[4] = target: T2, Integrin alpha-4/beta-1 (Homo sapiens); test: Cell adhesion activity against alpha4-beta1 integrin at 10 e-5M (not active); format: protein-complex assay
[5] = target: T1, Integrin alpha-IIb/beta-3; test: Selectivity against Integrin alpha-IIb beta-3 receptor versus fibrinogen; Not active; format: protein-complex assay

Chain of Integrin alpha-V/beta-3 (P05106 27-788 limits assumed): as the sequence (P05106 27-788 limits assumed) above
Chain of Integrin alpha-V/beta-3 (P06756 31-889 limits assumed): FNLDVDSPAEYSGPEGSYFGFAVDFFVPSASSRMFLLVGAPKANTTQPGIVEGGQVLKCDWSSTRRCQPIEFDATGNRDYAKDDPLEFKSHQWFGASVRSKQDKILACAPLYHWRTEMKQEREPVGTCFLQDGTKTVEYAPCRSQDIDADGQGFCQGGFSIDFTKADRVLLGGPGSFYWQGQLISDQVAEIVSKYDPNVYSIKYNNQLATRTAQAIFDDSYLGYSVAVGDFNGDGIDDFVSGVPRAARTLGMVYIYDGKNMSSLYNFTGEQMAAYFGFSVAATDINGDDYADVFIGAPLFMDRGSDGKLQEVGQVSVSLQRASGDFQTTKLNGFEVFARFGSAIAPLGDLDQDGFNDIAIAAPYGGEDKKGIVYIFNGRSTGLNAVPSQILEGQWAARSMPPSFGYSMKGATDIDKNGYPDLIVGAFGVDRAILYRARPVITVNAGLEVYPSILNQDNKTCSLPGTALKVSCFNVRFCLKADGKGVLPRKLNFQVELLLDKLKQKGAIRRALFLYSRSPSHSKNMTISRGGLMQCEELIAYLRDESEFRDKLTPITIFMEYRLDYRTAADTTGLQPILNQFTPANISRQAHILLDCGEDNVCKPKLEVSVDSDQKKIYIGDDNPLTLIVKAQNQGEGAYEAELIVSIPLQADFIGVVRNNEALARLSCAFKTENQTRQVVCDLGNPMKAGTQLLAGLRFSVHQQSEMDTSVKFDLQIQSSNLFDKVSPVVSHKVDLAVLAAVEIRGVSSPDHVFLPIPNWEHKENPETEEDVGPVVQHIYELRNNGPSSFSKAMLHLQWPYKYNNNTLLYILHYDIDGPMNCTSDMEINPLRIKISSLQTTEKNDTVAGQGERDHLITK
Chain of Integrin alpha-V/beta-3 (P06756 891-1048 limits assumed): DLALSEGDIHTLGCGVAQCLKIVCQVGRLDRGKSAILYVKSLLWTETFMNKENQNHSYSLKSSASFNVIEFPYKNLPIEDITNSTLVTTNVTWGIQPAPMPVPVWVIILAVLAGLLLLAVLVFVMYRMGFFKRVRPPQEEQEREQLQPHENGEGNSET

IC50 (Integrin alpha-V/beta-3) [nM]	IC50 [1]	IC50 (Homo sapiens) [nM]	inhibition [2] [%]	inhibition [3]	inhibition [4]	IC50 [5]	SMILES
0.4	Not Active	1200	2	inactive			O=C(CNC(=O)c1ccc(NC(=O)NCc2ccccc2)o1)NC[C@H](NC(=O)OCc1ccccc1)C(=O)O
1.8		500		inactive	inactive	Not Active	O=C(CNC(=O)c1cnc(NC(=O)NCc2ccccc2)o1)NC[C@H](NC(=O)OCc1ccccc1)C(=O)O
